Results on three molecules are retold here after patent publication US12150998B2, “Bicyclic peptide ligands specific for P-selectin” (BicycleTx Limited, priority 2021, dated 2024).

Like-named read-outs stand apart in the source and are kept apart here. Starred links: 1 amine or outer side, 2 acyl side, 3 side chain; linkers in the order of their positions; H or OH if unused. Positions of bridges follow the written chain, without caps; N, C: chain ends. Non-standard residues stand in square brackets, D forms with d. Residues, ends and D or L forms follow the SMILES beside them. X1 = O=C(C[*:1])N1CCN(C(=O)C[*:2])CCN(C(=O)C[*:3])CC1; 1Nal = N[C@@H](Cc1cccc2ccccc12)C(=O)O

One test deals with T1, human P-Selectin protein (Homo sapiens, UniProt P16109).
T1 sequence (P16109 42-830): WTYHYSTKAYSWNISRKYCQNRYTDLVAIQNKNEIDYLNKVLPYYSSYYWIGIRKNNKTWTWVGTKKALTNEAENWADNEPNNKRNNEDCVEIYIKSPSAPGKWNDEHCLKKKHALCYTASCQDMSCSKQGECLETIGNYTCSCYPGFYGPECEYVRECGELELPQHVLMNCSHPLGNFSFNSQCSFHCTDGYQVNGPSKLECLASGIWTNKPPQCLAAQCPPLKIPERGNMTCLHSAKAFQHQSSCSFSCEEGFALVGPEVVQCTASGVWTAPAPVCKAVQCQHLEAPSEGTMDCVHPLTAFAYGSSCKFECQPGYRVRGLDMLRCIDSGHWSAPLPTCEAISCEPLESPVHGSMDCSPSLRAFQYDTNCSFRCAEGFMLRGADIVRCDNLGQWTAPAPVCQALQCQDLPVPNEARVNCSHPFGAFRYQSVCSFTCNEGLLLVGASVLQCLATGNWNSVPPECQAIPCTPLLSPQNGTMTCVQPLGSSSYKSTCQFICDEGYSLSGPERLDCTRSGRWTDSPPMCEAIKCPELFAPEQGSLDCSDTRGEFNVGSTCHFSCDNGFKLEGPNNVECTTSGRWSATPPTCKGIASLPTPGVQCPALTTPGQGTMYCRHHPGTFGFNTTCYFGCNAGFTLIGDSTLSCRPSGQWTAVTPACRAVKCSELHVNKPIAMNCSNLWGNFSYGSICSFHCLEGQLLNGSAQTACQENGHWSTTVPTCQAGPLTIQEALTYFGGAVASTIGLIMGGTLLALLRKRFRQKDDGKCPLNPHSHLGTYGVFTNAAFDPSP
The test can be described thus: SPR binding assay (Biacore). The conditions noted are these: recombinant biotinylated human P-Selectin, 25° C. In a few lines: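 Biotinylated recombinant human P-Selectin was captured on a streptavidin chip (1000-1500 RU), and monomeric peptides were injected in PBS/0.05% Tween 20 with 0.5% DMSO at 25 °C (top 200 nM–50 μM, 2- or 3-fold series). Double-referenced data were fitted to a kinetic model with mass transport to give ka, kd and KD.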
In general terms: Surface plasmon resonance follows binding to a sensor surface in real time, without labels.

For test [1], the target named is T2, P-Selectin:PSGL1 interaction (Homo sapiens, UniProt P16109).
T2 construct: host or cells: HL-60 cells (ATCC, CCL-240) supply the PSGL-1 partner endogenously
T2 sequence (P16109 42-771 limits assumed): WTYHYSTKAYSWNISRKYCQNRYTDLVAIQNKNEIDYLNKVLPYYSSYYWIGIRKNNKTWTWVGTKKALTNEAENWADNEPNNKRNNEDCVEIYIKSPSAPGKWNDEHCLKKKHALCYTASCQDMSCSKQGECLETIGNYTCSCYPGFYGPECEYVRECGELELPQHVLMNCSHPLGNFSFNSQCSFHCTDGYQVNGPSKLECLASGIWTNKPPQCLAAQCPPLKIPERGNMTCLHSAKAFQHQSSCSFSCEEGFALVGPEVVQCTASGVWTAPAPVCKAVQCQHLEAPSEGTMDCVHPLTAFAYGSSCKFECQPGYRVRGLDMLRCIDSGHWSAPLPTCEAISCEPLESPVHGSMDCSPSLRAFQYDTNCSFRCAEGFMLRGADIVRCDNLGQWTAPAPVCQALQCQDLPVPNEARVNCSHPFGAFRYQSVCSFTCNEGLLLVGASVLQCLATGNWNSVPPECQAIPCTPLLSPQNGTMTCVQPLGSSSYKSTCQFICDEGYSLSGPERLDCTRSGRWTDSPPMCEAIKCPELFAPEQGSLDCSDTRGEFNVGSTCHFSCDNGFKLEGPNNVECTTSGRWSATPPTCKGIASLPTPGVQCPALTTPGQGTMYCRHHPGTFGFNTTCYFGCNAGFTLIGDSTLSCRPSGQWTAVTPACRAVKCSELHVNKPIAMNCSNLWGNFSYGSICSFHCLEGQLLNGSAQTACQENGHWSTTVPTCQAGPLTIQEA
The test can be described thus: Receptor ligand inhibition assay (P-Selectin binding to HL-60 cells). Format: cell-based. The conditions noted are these: for Inhibition at top concentration: 100−% response at top concentration. As to the method: Bicycle test samples, SelG1 (Crizanlizumab) were serially diluted maintaining 0.5% DMSO in assay buffer (25 mM HEPES, 121 mM NaCl, 5.4 mM KCl, 0.8 mM MgCl2, 1.8 mM CaCl2), 6 mM […], 5.5 mM glucose, 1% BSA, pH7.4) and transferred to 384 well clear bottom plates (Corning, 3712) with a final volume of 6 μL. […], of P-Selectin in imaging buffer (25 mM HEPES, 121 mM NaCl, 5.4 mM KCl, 0.8 mM MgCl2, 1.8 mM CaCl2), 6 mM […], 5.5 mM glucose, pH7.4) was added to give a 5 nM final concentration and incubated at room temperature for 15 minutes. HL-60 cells (ATCC, CCL-240) mixed with 1 μg/mL far red labelled wheat germ agglutinin (WGA, ThermoFisher W21404) and 1 μg/mL AlexaFluor 488-streptavidin (Invitrogen S11223) were added to the plate and incubated for 2 hours at room temperature in the absence of light. Staining and antibody binding were quantified by simultaneously scanning the microplates with 488 nm and 640 nm lasers on a mirrorball microplate cytometer, AF488 on FL2 triggering on AF647-WGA on FL4. Data was analysed in Dotmatics, using a four parameter logistic fit to generate IC50 values and % response. Percent inhibition was calculated using 100−% response at top concentration.

On to `CC(C)C[C@@H]1NC(=O)[C@H](CO)NC(=O)[C@@H]2CCCN2C(=O)[C@H](C(C)C)NC(=O)[C@H](CC(=O)O)NC(=O)[C@@H]2CSCC(=O)N3CCN(CCN(CC3)C(=O)CSC[C@@H](C(=O)N[C@@H](C)C(=O)N[C@@H](CCCCNC(=O)CCc3cn(CCOCCOCCOCCOCCOCCOCCOCCOCCOCCOCCOCCOCCOCCOCCOCCOCCOCCOCCOCCOCCOCCOCCOCCNC(=O)CCOCC(COCCC(=O)NCCOCCOCCOCCOCCOCCOCCOCCOCCOCCOCCOCCOCCOCCOCCOCCOCCOCCOCCOCCOCCOCCOCCOCCn4cc(CCC(=O)NCCCC[C@H](NC(=O)[C@H](C)NC(=O)[C@@H]5CSCC(=O)N6CCN7CCN(CC6)C(=O)CSC[C@H](NC(=O)[C@H](Cc6c[nH]c8ccccc68)NC(=O)[C@H](CC(=O)O)NC(=O)[C@H](C)NC(=O)[C@H](CC(=O)O)NC(=O)[C@@H](NC(=O)[C@H](C)N)CSCC7=O)C(=O)N[C@@H](CC(=O)O)C(=O)N[C@@H](C(C)C)C(=O)N6CCC[C@H]6C(=O)N[C@@H](CO)C(=O)N[C@@H](CC(C)C)C(=O)N6CCC[C@H]6C(=O)N5)C(N)=O)nn4)(COCCC(=O)NCCOCCOCCOCCOCCOCCOCCOCCOCCOCCOCCOCCOCCOCCOCCOCCOCCOCCOCCOCCOCCOCCOCCOCCn4cc(CCC(=O)NCCCC[C@H](NC(=O)[C@H](C)NC(=O)[C@@H]5CSCC(=O)N6CCN7CCN(CC6)C(=O)CSC[C@H](NC(=O)[C@H](Cc6c[nH]c8ccccc68)NC(=O)[C@H](CC(=O)O)NC(=O)[C@H](C)NC(=O)[C@H](CC(=O)O)NC(=O)[C@@H](NC(=O)[C@H](C)N)CSCC7=O)C(=O)N[C@@H](CC(=O)O)C(=O)N[C@@H](C(C)C)C(=O)N6CCC[C@H]6C(=O)N[C@@H](CO)C(=O)N[C@@H](CC(C)C)C(=O)N6CCC[C@H]6C(=O)N5)C(N)=O)nn4)COCCC(=O)NCCOCCOCCOCCOCCOCCOCCOCCOCCOCCOCCOCCOCCOCCOCCOCCOCCOCCOCCOCCOCCOCCOCCOCCn4cc(CCC(=O)NCCCC[C@H](NC(=O)[C@H](C)NC(=O)[C@@H]5CSCC(=O)N6CCN7CCN(CC6)C(=O)CSC[C@H](NC(=O)[C@H](Cc6c[nH]c8ccccc68)NC(=O)[C@H](CC(=O)O)NC(=O)[C@H](C)NC(=O)[C@H](CC(=O)O)NC(=O)[C@@H](NC(=O)[C@H](C)N)CSCC7=O)C(=O)N[C@@H](CC(=O)O)C(=O)N[C@@H](C(C)C)C(=O)N6CCC[C@H]6C(=O)N[C@@H](CO)C(=O)N[C@@H](CC(C)C)C(=O)N6CCC[C@H]6C(=O)N5)C(N)=O)nn4)nn3)C(N)=O)NC(=O)[C@@H]3CCCN3C1=O)C(=O)CSC[C@H](NC(=O)[C@H](C)N)C(=O)N[C@@H](CC(=O)O)C(=O)N[C@@H](C)C(=O)N[C@@H](CC(=O)O)C(=O)N[C@@H](Cc1c[nH]c3ccccc13)C(=O)N2` [BCY12261], for which the equilibrium dissociation constant (Kd) – broadly, the equilibrium constant for the complex coming apart – at human P-Selectin protein (Affinity KD determined by SPR) was 0.019 nM. For the same molecule, the IC50 (usually the concentration at which inhibition is half-maximal) in test [1] stood at 10.4 nM. Besides, in test [1] (geomean of n=3), the Inhibition (as a rule, the drop in the measured response relative to a control, in per cent) at top concentration came to 68%.
For the molecule `CC(C)C[C@@H]1NC(=O)[C@H](CO)NC(=O)[C@@H]2CCCN2C(=O)[C@H](C(C)C)NC(=O)[C@H](CC(=O)O)NC(=O)[C@@H]2CSCC(=O)N3CCN(CCN(CC3)C(=O)CSC[C@@H](C(=O)N[C@@H](C)C(N)=O)NC(=O)[C@@H]3CCCN3C1=O)C(=O)CSC[C@H](NC(=O)[C@H](C)N)C(=O)N[C@@H](CC(=O)O)C(=O)N[C@@H](C)C(=O)N[C@@H](CC(=O)O)C(=O)N[C@@H](Cc1cccc3ccccc13)C(=O)N2` [BCY12027, A-(SEQ ID NO: 2)-A] (H-ACDAD[1Nal]CDVPSLPCA-NH2; linker 2-7-14 via X1; N-terminus assumed), the Kd on human P-Selectin protein (read-out: Affinity KD determined by SPR) is under 10 nM. Also, the IC50 in test [1] (5 nM P-Selectin, HL-60 cells, geomean of n=3, read-out: IC50) is over 36.8 nM. In test [1] (geomean of n=3), the “Inhibition at top concentration” value is on record as 36%.
As to `CC(C)C[C@@H]1NC(=O)[C@H](CO)NC(=O)[C@@H]2CCCN2C(=O)[C@H](C(C)C)NC(=O)[C@H](CC(=O)O)NC(=O)[C@@H]2CSCC(=O)N3CCN(CCN(CC3)C(=O)CSC[C@@H](C(=O)N[C@@H](C)C(=O)N[C@@H](CCCCNC(=O)CCc3cn(CCOCCOCCOCCOCCOCCOCCOCCOCCOCCOCCOCCOCCOCCOCCOCCOCCOCCOCCOCCOCCOCCOCCOCCNC(=O)CCOCC(COCCC(=O)NCCOCCOCCOCCOCCOCCOCCOCCOCCOCCOCCOCCOCCOCCOCCOCCOCCOCCOCCOCCOCCOCCOCCOCCn4cc(CCC(=O)NCCCC[C@H](NC(=O)[C@H](C)NC(=O)[C@@H]5CSCC(=O)N6CCN7CCN(CC6)C(=O)CSC[C@H](NC(=O)[C@H](Cc6cccc8ccccc68)NC(=O)[C@H](CC(=O)O)NC(=O)[C@H](C)NC(=O)[C@H](CC(=O)O)NC(=O)[C@@H](NC(=O)[C@H](C)N)CSCC7=O)C(=O)N[C@@H](CC(=O)O)C(=O)N[C@@H](C(C)C)C(=O)N6CCC[C@H]6C(=O)N[C@@H](CO)C(=O)N[C@@H](CC(C)C)C(=O)N6CCC[C@H]6C(=O)N5)C(N)=O)nn4)(COCCC(=O)NCCOCCOCCOCCOCCOCCOCCOCCOCCOCCOCCOCCOCCOCCOCCOCCOCCOCCOCCOCCOCCOCCOCCOCCn4cc(CCC(=O)NCCCC[C@H](NC(=O)[C@H](C)NC(=O)[C@@H]5CSCC(=O)N6CCN7CCN(CC6)C(=O)CSC[C@H](NC(=O)[C@H](Cc6cccc8ccccc68)NC(=O)[C@H](CC(=O)O)NC(=O)[C@H](C)NC(=O)[C@H](CC(=O)O)NC(=O)[C@@H](NC(=O)[C@H](C)N)CSCC7=O)C(=O)N[C@@H](CC(=O)O)C(=O)N[C@@H](C(C)C)C(=O)N6CCC[C@H]6C(=O)N[C@@H](CO)C(=O)N[C@@H](CC(C)C)C(=O)N6CCC[C@H]6C(=O)N5)C(N)=O)nn4)COCCC(=O)NCCOCCOCCOCCOCCOCCOCCOCCOCCOCCOCCOCCOCCOCCOCCOCCOCCOCCOCCOCCOCCOCCOCCOCCn4cc(CCC(=O)NCCCC[C@H](NC(=O)[C@H](C)NC(=O)[C@@H]5CSCC(=O)N6CCN7CCN(CC6)C(=O)CSC[C@H](NC(=O)[C@H](Cc6cccc8ccccc68)NC(=O)[C@H](CC(=O)O)NC(=O)[C@H](C)NC(=O)[C@H](CC(=O)O)NC(=O)[C@@H](NC(=O)[C@H](C)N)CSCC7=O)C(=O)N[C@@H](CC(=O)O)C(=O)N[C@@H](C(C)C)C(=O)N6CCC[C@H]6C(=O)N[C@@H](CO)C(=O)N[C@@H](CC(C)C)C(=O)N6CCC[C@H]6C(=O)N5)C(N)=O)nn4)nn3)C(N)=O)NC(=O)[C@@H]3CCCN3C1=O)C(=O)CSC[C@H](NC(=O)[C@H](C)N)C(=O)N[C@@H](CC(=O)O)C(=O)N[C@@H](C)C(=O)N[C@@H](CC(=O)O)C(=O)N[C@@H](Cc1cccc3ccccc13)C(=O)N2` [BCY12262], the Kd on human P-Selectin protein (Affinity KD determined by SPR) was determined as 0.017 nM. In test [1], this molecule showed a half-maximal inhibitory concentration (IC50) of 3.29 nM. The “Inhibition at top concentration” value in test [1] (geomean of n=3) came out at 68%.
